Results as given in patent US20250205256A1 (GH RESEARCH IRELAND LIMITED, priority 2022, published 2025).

Tests used:
[1] = test system: patient with postpartum depression (PPD); assay: Clinical trial of inhaled 5-MeO-DMT (IDR, 6 mg then 12 mg) in postpartum depression: BPRS; assay type: in vivo, human; conditions: PPD n=1
Text: The patient completed all planned visit days.

[2] = test system: patients with treatment-resistant major depressive disorder (TRD); assay: Phase 1/2 clinical trial of inhaled 5-MeO-DMT in TRD: BPRS items; assay type: in vivo, human; conditions: for BPRS Emotional Withdrawal score: baseline 13
Text: Patients were assigned to different groups.
The BPRS item that is of particular relevance to negative thinking is “guilt feelings”. This item relates to over concern or remorse for past behaviour. Possible scores are: • 1—No guilt feelings. • 2—Very Mild. Concerned about having failed someone or at something but not preoccupied. Can shift thoughts to other matters easily. • 3—Mild. Concerned about having failed someone or at something with some preoccupation. Tends to voice guilt to others. • 4—Moderate. Disproportionate preoccupation with guilt, having done wrong, injured others by doing or failing to do something, but can readily turn attention to other things. • 5—Moderately Severe. Preoccupation with guilt, having failed someone or at something, can turn attention to other things, but only with great effort. Not delusional. • 6—Severe; Delusional guilt or unreasonable self-reproach very out of proportion to circumstances. Moderate preoccupation present. • 7—Extremely Severe. Delusional guilt or unreasonable self-reproach grossly out of proportion to circumstances. Subject is very preoccupied with guilt and is likely to disclose to others or act on delusions.
This trial was designed in two parts.

[3] = 12 mg n=4 sum, 3 h after dose vs baseline
[4] = 12 mg n=4 sum, Day 1 vs baseline
[5] = 12 mg n=4 sum, Day 7 vs baseline
[6] = IDR n=8 sum, 3 h after last dose vs baseline

## COc1ccc2[nH]cc(CCN(C)C)c2c1 [5-MeO-DMT]
[1]; Day 1 vs baseline
  BPRS Tension improvement: 5
[1]; Discharge vs baseline
  BPRS Tension improvement: 5
[2]; [3]
  BPRS Anxiety improvement: 14
  BPRS Blunted Affect improvement: 3
  BPRS Emotional Withdrawal improvement: 2
  BPRS Guilt Feelings improvement: 9
  BPRS Guilt Feelings percentage improvement: 50.00%
  BPRS Tension improvement: 5
[2]; 12 mg n=4 sum, 3 h after dose, baseline 11
  BPRS Blunted Affect score: 8
[2]; 12 mg n=4 sum, 3 h after dose
  BPRS Emotional Withdrawal score: 11
[2]; 12 mg n=4 sum, 3 h after dose, baseline 14
  BPRS Tension score: 9
[2]; 12 mg n=4 sum, 3 h after dose, baseline 18
  BPRS Guilt Feelings score: 9
[2]; 12 mg n=4 sum, 3 h after dose, baseline 25
  BPRS Anxiety score: 11
[2]; 12 mg n=4 sum, Day 1, baseline 11
  BPRS Blunted Affect score: 6
[2]; 12 mg n=4 sum, Day 1
  BPRS Emotional Withdrawal score: 8
[2]; 12 mg n=4 sum, Day 1, baseline 14
  BPRS Tension score: 6
[2]; 12 mg n=4 sum, Day 1, baseline 18
  BPRS Guilt Feelings score: 5
[2]; 12 mg n=4 sum, Day 1, baseline 25
  BPRS Anxiety score: 6
[2]; [4]
  BPRS Anxiety improvement: 19
  BPRS Blunted Affect improvement: 5
  BPRS Emotional Withdrawal improvement: 5
  BPRS Guilt Feelings improvement: 13
  BPRS Tension improvement: 8
[2]; 12 mg n=4 sum, Day 7, baseline 11
  BPRS Blunted Affect score: 5
[2]; 12 mg n=4 sum, Day 7
  BPRS Emotional Withdrawal score: 6
[2]; 12 mg n=4 sum, Day 7, baseline 14
  BPRS Tension score: 6
[2]; 12 mg n=4 sum, Day 7, baseline 18
  BPRS Guilt Feelings score: 5
[2]; 12 mg n=4 sum, Day 7, baseline 25
  BPRS Anxiety score: 6
[2]; [5]
  BPRS Anxiety improvement: 19
  BPRS Blunted Affect improvement: 6
  BPRS Emotional Withdrawal improvement: 7
  BPRS Guilt Feelings improvement: 13
  BPRS Tension improvement: 8
[2]; [6]
  BPRS Anxiety improvement: 18
  BPRS Blunted Affect improvement: 4
  BPRS Emotional Withdrawal improvement: 5
  BPRS Guilt Feelings improvement: 20
  BPRS Tension improvement: 5
[2]; IDR n=8 sum, 3 h after last dose
  BPRS Emotional Withdrawal score: 8
[2]; IDR n=8 sum, 3 h after last dose, baseline 15
  BPRS Blunted Affect score: 11
[2]; IDR n=8 sum, 3 h after last dose, baseline 16
  BPRS Tension score: 11
[2]; IDR n=8 sum, 3 h after last dose, baseline 34
  BPRS Guilt Feelings score: 14
[2]; IDR n=8 sum, 3 h after last dose, baseline 37
  BPRS Anxiety score: 19
[2]; IDR n=8 sum, Day 1
  BPRS Emotional Withdrawal score: 8
[2]; IDR n=8 sum, Day 1, baseline 15
  BPRS Blunted Affect score: 8
[2]; IDR n=8 sum, Day 1, baseline 16
  BPRS Tension score: 11
[2]; IDR n=8 sum, Day 1, baseline 34
  BPRS Guilt Feelings score: 11
[2]; IDR n=8 sum, Day 1, baseline 37
  BPRS Anxiety score: 16
[2]; IDR n=8 sum, Day 1 vs baseline
  BPRS Anxiety improvement: 21
  BPRS Blunted Affect improvement: 7
  BPRS Emotional Withdrawal improvement: 5
  BPRS Guilt Feelings improvement: 23
  BPRS Tension improvement: 5
[2]; IDR n=8 sum, Day 7
  BPRS Emotional Withdrawal score: 8
[2]; IDR n=8 sum, Day 7, baseline 15
  BPRS Blunted Affect score: 8
[2]; IDR n=8 sum, Day 7, baseline 16
  BPRS Tension score: 10
[2]; IDR n=8 sum, Day 7, baseline 34
  BPRS Guilt Feelings score: 10
[2]; IDR n=8 sum, Day 7, baseline 37
  BPRS Anxiety score: 17
[2]; IDR n=8 sum, Day 7 vs baseline
  BPRS Anxiety improvement: 20
  BPRS Blunted Affect improvement: 7
  BPRS Emotional Withdrawal improvement: 5
  BPRS Guilt Feelings improvement: 24
  BPRS Tension improvement: 6
